Measurements reported in article PMC3280264 (PLoS ONE, 2012).
Marks after values point to notes of the source that are not given here.

How the values were obtained:
Rat SGLT1 = molecular target: T1, Rat SGLT1 (Rattus norvegicus, UniProt P53790); assay: 14C-AMG uptake in CHOK cells expressing rat SGLT1; format: cell-based; settings: mean of 2 experiments
T1 construct: expressed in transfected cells; host or cells: CHO-K (CHOK) cells
T1 sequence (P53790 1-665): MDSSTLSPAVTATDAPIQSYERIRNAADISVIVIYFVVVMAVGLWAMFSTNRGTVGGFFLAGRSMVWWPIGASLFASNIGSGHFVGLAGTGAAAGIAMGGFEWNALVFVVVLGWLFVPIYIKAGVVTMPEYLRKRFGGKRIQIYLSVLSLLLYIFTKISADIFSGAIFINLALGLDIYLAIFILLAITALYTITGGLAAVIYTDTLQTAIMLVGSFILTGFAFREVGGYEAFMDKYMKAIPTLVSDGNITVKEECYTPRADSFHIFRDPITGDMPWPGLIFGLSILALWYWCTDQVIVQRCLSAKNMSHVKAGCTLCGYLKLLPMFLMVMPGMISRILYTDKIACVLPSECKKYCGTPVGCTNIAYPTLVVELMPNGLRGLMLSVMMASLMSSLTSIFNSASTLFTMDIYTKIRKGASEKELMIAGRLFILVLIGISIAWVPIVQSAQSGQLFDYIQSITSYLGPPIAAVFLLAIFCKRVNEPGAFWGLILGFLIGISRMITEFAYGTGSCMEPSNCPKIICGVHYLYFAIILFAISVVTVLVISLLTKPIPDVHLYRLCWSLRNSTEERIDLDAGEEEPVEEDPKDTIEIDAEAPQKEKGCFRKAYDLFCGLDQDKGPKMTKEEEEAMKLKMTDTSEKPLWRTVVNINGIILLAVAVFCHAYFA
Procedure: (§1) Cells were seeded into 96-well plates.
(§2) All data are presented as mean ± standard error.

Mouse SGLT1 = molecular target: T2, Mouse SGLT1 (Mus musculus, UniProt Q8C3K6); assay: 14C-AMG uptake in CHOK cells expressing mouse SGLT1; format: cell-based; settings: CHO-mSGLT1 cells, mean of 2 experiments
T2 construct: expressed in transfected cells; host or cells: CHO-K (CHOK) cells
T2 sequence (Q8C3K6 1-665): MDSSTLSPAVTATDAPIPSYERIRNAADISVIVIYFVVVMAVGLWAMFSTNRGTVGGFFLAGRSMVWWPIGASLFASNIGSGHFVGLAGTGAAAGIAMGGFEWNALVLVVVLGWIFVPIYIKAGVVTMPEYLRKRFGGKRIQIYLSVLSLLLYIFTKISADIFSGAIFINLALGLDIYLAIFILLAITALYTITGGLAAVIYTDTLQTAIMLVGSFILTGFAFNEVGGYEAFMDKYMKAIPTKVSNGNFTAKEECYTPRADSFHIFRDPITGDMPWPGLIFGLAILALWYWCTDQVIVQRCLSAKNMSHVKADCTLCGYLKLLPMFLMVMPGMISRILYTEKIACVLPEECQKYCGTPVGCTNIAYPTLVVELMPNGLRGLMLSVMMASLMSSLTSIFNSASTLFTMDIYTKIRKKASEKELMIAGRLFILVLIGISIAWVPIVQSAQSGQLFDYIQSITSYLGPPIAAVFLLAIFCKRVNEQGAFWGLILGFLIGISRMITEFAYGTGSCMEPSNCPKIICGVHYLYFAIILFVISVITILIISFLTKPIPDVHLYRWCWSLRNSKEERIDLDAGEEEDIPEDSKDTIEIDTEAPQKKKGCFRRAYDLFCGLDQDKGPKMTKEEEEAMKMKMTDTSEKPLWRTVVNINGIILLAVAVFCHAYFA
Procedure: as §1, §2

ZDF rats = assay: Graded glucose infusion, renal threshold for glucose excretion in ZDF rats; format: in vivo, rat; settings: 1 mg/kg
Source text: (§3) Four rodent models were used in these experiments: (1) male C57BL/6J mice fed with a high-fat diet (D-12492 with 60 kcal% fat, Research Diets, Inc, New Jersey, USA) (diet-induced obese, insulin resistantmice [DIO]); (2) male C57BL/ksj-db/db hyperglycemic mice; (3) male Zucker fatty (ZF) obese, insulin resistant rats; and (4) male ZDF obese, hyperglycemic rats. All animals were housed according to standard procedures following a protocol approved by the IACUC in Drug Discovery at Johnson & Johnson Pharmaceutical Research & Development, LLC.
Two separate graded glucose infusion (GGI) studies were performed to characterize renal glucose handling in both untreated and treated ZDF rats. […] The RTG was determined as described below.
The relationship between UGE and BG is commonly described as a threshold relationship in which there is little UGE when BG<RTG and UGE increases with filtered glucose load when BG>RTG, where the filtered glucose load is equal to the BG concentration multiplied by the glomerular filtration rate (GFR). […] (1) Values of RTG were determined using nonlinear regression (nlinfit in Matlab version 7.10) with Equation 1 and the measured BG and UGE values.

DIO mice = assay: 4-week treatment of DIO mice (body weight, UGE, calorimetry); format: in vivo; settings: DIO mouse, 30 mg/kg, 4 weeks
Source text: as §3
Body weight, food intake, and BG levels were monitored weekly. UGE and indirect calorimetry were conducted in the fourth week of treatment during the compound treatment. […] Body weight, food intake, and BG were measured weekly during the 19-day treatment period. UGE, body fat, and indirect calorimetric studies were conducted at the end of this study.

Rat SGLT2 = Rat SGLT2 (Rattus norvegicus, UniProt P53792); assay: cell-based
Sequence of Rat SGLT2 (P53792 whole entry): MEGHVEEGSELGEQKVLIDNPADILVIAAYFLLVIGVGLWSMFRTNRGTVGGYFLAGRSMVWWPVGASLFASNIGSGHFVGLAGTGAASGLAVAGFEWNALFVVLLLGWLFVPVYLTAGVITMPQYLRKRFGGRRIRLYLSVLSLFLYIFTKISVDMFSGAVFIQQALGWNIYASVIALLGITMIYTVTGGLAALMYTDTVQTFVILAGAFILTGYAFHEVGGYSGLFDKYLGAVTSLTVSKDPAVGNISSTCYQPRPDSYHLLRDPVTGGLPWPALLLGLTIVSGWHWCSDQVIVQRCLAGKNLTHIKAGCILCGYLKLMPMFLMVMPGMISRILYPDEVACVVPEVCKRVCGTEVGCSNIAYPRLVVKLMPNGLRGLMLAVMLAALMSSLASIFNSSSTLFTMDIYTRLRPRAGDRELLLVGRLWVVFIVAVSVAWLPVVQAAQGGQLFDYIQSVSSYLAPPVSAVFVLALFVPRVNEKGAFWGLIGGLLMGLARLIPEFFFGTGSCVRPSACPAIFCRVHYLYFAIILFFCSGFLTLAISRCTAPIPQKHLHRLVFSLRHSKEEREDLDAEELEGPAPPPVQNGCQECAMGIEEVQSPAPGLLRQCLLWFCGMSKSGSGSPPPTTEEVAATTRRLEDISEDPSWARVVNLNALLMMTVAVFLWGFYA

- IC50 (Rat SGLT1): 571 nM
- IC50 (Mouse SGLT1): > 1000 nM
- IC50 (Rat SGLT2): 3.7 nM
Compound: Cc1ccc([C@@H]2O[C@H](CO)[C@@H](O)[C@H](O)[C@H]2O)cc1Cc1ccc(-c2ccc(F)cc2)s1 [canagliflozin, Canagliflozin]
- BG at which negligible UGE occurred (ZDF rats; insulin + GGI study): < 90 mg/dL
- renal threshold for glucose excretion (RTG) (ZDF rats; untreated 415±12 mg/dl): 94 ± 10 mg/dL
- RER (DIO mice; vehicle 0.79±0.01): 0.77±0.01 ^b
- UGE (DIO mice; vehicle 2.4±0.6): 26.1±5.2 ^b mg/4 h
- Body weight (DIO mice; vehicle 53.2±0.6): 49.6±1.0 ^b g
- Fed BG (DIO mice; vehicle 199±16): 105±13 ^b mg/dl
- Oxygen consumption (VO2) (DIO mice; vehicle 2364±29): 40.32 ± 1.82 mL/min/kg
